{"source": "patent US20250051409A1", "about": "“MODULATORS OF PHOSPHATIDYLSERlNE DECARBOXYLASE AND USE THEREOF” (THE NATIONAL INSTITUTE FOR BIOTECHNOLOGY IN THE NEGEV LTD., priority 2021, published 2025)", "note": "Square brackets hold non-standard residues; d marks the D form. Peptide text beside a SMILES is read from it. Dmt = Cc1cc(O)cc(C)c1C[C@H](N)C(=O)O; Orn = NCCC[C@H](N)C(=O)O"}
{"test_system": "A549 lung cancer cell", "assay_type": "cell-based, human", "settings": "24 h", "experimental": "(B) Inhibition of PSD activity by the 2F3 (●) or 1C11 (◯) peptide. PSD activity was measured using the DSB-3 method. (C-E) Cell proliferation inhibition following incubation of A549 cells with the indicated mitochondria- or nuclear-targeted peptides for 24 h in a serum-free medium, and cell proliferation was assayed using the SRB method. Results are the means±SEM (n=3). (F) A549 cells were incubated for 90 min with 5 μM of the mitochondria- or nuclear targeted FITC-labelled peptides, immunostained with anti-SMAC antibodies and with DAPI and visualized by confocal microscope for subcellular localization. Arrows indicates nuclear (n=3). Scale bars represent 20\n(A) A549 cells were incubated with the indicated concentration of 1C11-HTRA2-derived peptide targeted to the mitochondrion with the targeting sequence added to the N-terminus (N-Ter) or the C-terminus (C-Ter). (B) Mitochondrion targeted 1C11-HTRA2-derived peptide was modified by replacing the three amino acids in the C or the N-terminus of the peptide, or all amino acids in the peptide with the D-confirmation of the amino acid (underlined amino acids)). Following 24 h incubation in a serum-free medium, cell proliferation was assayed using the SRB method. (C) The concentration required for 50% inhibition of cell proliferation (IC50) is presented. Results are the means±SEM (n=3).\nA549 (human lung adenocarcinoma epithelial cell), HEK-293T (human embryonic kidney), H1563/CRL-5875 (non-small cell lung cancer adenocarcinoma), H-358 (bronchioalveolar carcinoma), HaCaT (spontaneously transformed aneuploid immortal human skin keratinocyte), and WI-38 (fibroblast-like fetal lung cell) cell lines were purchased from the American Type Culture Collection (ATCC) (Manassas, VA), and were maintained as per ATCC instructions. Cells were maintained in ATCC recommended medium at 37° C. in an incubator with 5% CO2. Cell lines were routinely tested for Mycoplasma contamination. For SMAC overexpression, cells were seeded (200,000 cells/well) on 6-well culture plates and allowed to adhere overnight. These adhered cells were transfected with PVMV3.1-SMAC or empty vector using the JetPRIME transfection reagent (Illkirch, France), according to the manufacturers' instructions. Medium was changed 6 h post transfection, and cells were harvested 48 h post transfection.\nCells were seeded in 96-well cell culture plates (8,000/well) and allowed to grow for 48 h. After washing with PBS, cells were fixed with 10% trichloroacetic acid, and stained with SRB for 20 min. Excess SRB were removed, and cells were washed with 1% acetic acid. SRB extraction was done using 100 mM Tris-base, and absorbance at 510 nm was determined using an Infinite M1000 plate reader (Tecan, Mannedorf, Switzerland).", "units": {"IC50": "µM"}}
{"molecule": "Cc1cc(O)cc(C)c1C[C@H](NC(=O)[C@@H](CCCNC(=N)N)NC(=O)[C@H](CC(C)C)NC(=O)[C@H](CCCNC(=N)N)NC(=O)[C@H](C)NC(=O)[C@H](Cc1c[nH]c2ccccc12)NC(=O)[C@H](CC(C)C)NC(=O)[C@H](CO)NC(=O)[C@@H]1CCCN1C(=O)[C@@H](NC(=O)CNC(=O)[C@H](Cc1ccc(O)cc1)NC(=O)[C@@H](NC(=O)[C@@H](NC(=O)[C@H](CCCNC(=N)N)NC(=O)[C@H](C)NC(=O)[C@H](CCCNC(=N)N)NC(=O)[C@@H]1CCCN1C(=O)[C@H](CC(=O)O)NC(=O)[C@H](CO)NC(=O)[C@@H](NC(=O)CNC(=O)[C@H](CO)NC(=O)[C@@H](NC(=O)[C@H](CC(C)C)NC(=O)[C@H](CC(C)C)NC(=O)[C@H](C)N)[C@@H](C)O)[C@@H](C)O)C(C)C)[C@@H](C)O)[C@@H](C)O)C(=O)N[C@@H](CCCN)C(=O)N[C@@H](Cc1ccccc1)C(N)=O", "note": "[1C11-D-Arg-Dmt-Orn-Phe] (H-ALLTSGTSDPRARVTYGTPSLWARL[dR][Dmt][Orn]F-NH2; N-terminus and C-terminus assumed)", "IC50": "30.3 ± 5.5"}
{"molecule": "CC(C)C[C@H](NC(=O)[C@H](C)N)C(=O)N[C@@H](CC(C)C)C(=O)N[C@H](C(=O)N[C@@H](CO)C(=O)NCC(=O)N[C@H](C(=O)N[C@@H](CO)C(=O)N[C@@H](CC(=O)O)C(=O)N1CCC[C@H]1C(=O)N[C@@H](CCCNC(=N)N)C(=O)N[C@@H](C)C(=O)N[C@@H](CCCNC(=N)N)C(=O)N[C@H](C(=O)N[C@H](C(=O)N[C@@H](Cc1ccc(O)cc1)C(=O)NCC(=O)N[C@H](C(=O)N1CCC[C@H]1C(=O)N[C@@H](CO)C(=O)N[C@@H](CC(C)C)C(=O)N[C@@H](Cc1c[nH]c2ccccc12)C(=O)N[C@@H](C)C(=O)N[C@@H](CCCNC(=N)N)C(=O)N[C@@H](CC(C)C)C(=O)N[C@@H](CCCNC(=N)N)C(=O)N[C@H](CCCNC(=N)N)C(=O)N[C@@H](CCCNC(=N)N)C(=O)N[C@@H](CCCCN)C(=O)O)[C@@H](C)O)[C@@H](C)O)C(C)C)[C@@H](C)O)[C@@H](C)O", "note": "[1C11-R-{D-Arg}-RK] (H-ALLTSGTSDPRARVTYGTPSLWARLR[dR]RK-OH; N-terminus and C-terminus assumed)", "IC50": "30 ± 3.8"}
{"molecule": "CC[C@H](C)[C@H](NC(=O)[C@@H](NC(=O)[C@H](CC(N)=O)NC(=O)[C@H](C)NC(=O)[C@H](CCCCN)NC(=O)[C@H](CC(C)C)NC(=O)[C@H](CC(C)C)NC(=O)[C@H](CC(N)=O)NC(=O)[C@H](CC(=O)O)NC(=O)[C@H](CC(C)C)NC(=O)[C@@H](NC(=O)[C@@H]1CCCN1C(=O)[C@H](CC(C)C)NC(=O)[C@@H](NC(=O)[C@H](CS)NC(=O)[C@@H](NC(=O)[C@H](CC(C)C)NC(=O)[C@H](CCC(N)=O)NC(=O)[C@H](CCC(N)=O)NC(=O)[C@@H](N)Cc1ccccc1)[C@@H](C)O)C(C)C)[C@@H](C)CC)C(C)C)C(=O)N[C@@H](CC(N)=O)C(=O)N[C@@H](CCCCN)C(=O)N[C@@H](CCC(N)=O)C(=O)N[C@@H](CCC(=O)O)C(=O)N[C@@H](Cc1c[nH]cn1)C(=O)N[C@H](CCCNC(=N)N)C(=O)N[C@@H](Cc1c(C)cc(O)cc1C)C(=O)N[C@@H](CCCN)C(=O)N[C@@H](Cc1ccccc1)C(N)=O", "note": "[1E14-D-Arg-Dmt-Orn-Phe] (H-FQQLTCVLPILDNLLKANVINKQEH[dR][Dmt][Orn]F-NH2; N-terminus and C-terminus assumed)", "IC50": "> 100"}
{"molecule": "CC[C@H](C)[C@H](NC(=O)[C@@H]1CCCN1C(=O)[C@H](CO)NC(=O)[C@H](CO)NC(=O)[C@@H](NC(=O)[C@H](CO)NC(=O)[C@H](CC(C)C)NC(=O)[C@H](C)N)[C@@H](C)O)C(=O)N1CCC[C@H]1C(=O)N[C@@H](CO)C(=O)N[C@H](C(=O)N1CCC[C@H]1C(=O)N[C@@H](CCC(N)=O)C(=O)N[C@@H](CO)C(=O)N[C@@H](CCC(N)=O)C(=O)N[C@@H](C)C(=O)N[C@@H](CCC(N)=O)C(=O)N1CCC[C@H]1C(=O)N[C@@H](CCC(N)=O)C(=O)N[C@H](C(=O)NCC(=O)N[C@@H](CO)C(=O)NCC(=O)N[C@@H](C)C(=O)N[C@@H](CO)C(=O)N[C@H](CCCNC(=N)N)C(=O)N[C@@H](Cc1c(C)cc(O)cc1C)C(=O)N[C@@H](CCCN)C(=O)N[C@@H](Cc1ccccc1)C(N)=O)[C@@H](C)O)C(C)C", "note": "[2F3-D-Arg-Dmt-Orn-Phe] (H-ALSTSSPIPSVPQSQAQPQTGSGAS[dR][Dmt][Orn]F-NH2; N-terminus and C-terminus assumed)", "IC50": "19.6 ± 0.4"}
{"molecule": "CC[C@H](C)[C@H](NC(=O)[C@@H]1CCCN1C(=O)[C@H](CO)NC(=O)[C@H](CO)NC(=O)[C@@H](NC(=O)[C@H](CO)NC(=O)[C@H](CC(C)C)NC(=O)[C@H](C)N)[C@@H](C)O)C(=O)N1CCC[C@H]1C(=O)N[C@@H](CO)C(=O)N[C@H](C(=O)N1CCC[C@H]1C(=O)N[C@@H](CCC(N)=O)C(=O)N[C@@H](CO)C(=O)N[C@@H](CCC(N)=O)C(=O)N[C@@H](C)C(=O)N[C@@H](CCC(N)=O)C(=O)N1CCC[C@H]1C(=O)N[C@@H](CCC(N)=O)C(=O)N[C@H](C(=O)NCC(=O)N[C@@H](CO)C(=O)NCC(=O)N[C@@H](C)C(=O)N[C@@H](CO)C(=O)N[C@@H](CCCNC(=N)N)C(=O)N[C@H](CCCNC(=N)N)C(=O)N[C@@H](CCCNC(=N)N)C(=O)N[C@@H](CCCCN)C(=O)O)[C@@H](C)O)C(C)C", "note": "[2F3-R-{D-Arg}-RK] (H-ALSTSSPIPSVPQSQAQPQTGSGASR[dR]RK-OH; N-terminus and C-terminus assumed)", "IC50": "29.6 ± 0.6"}
{"molecule": "Cc1cc(O)cc(C)c1C[C@H](NC(=O)[C@@H](CCCNC(=N)N)NC(=O)[C@H](CCC(N)=O)NC(=O)[C@H](CCC(N)=O)NC(=O)[C@H](CO)NC(=O)[C@H](CC(C)C)NC(=O)[C@H](Cc1ccccc1)NC(=O)[C@H](CC(=O)O)NC(=O)[C@H](Cc1ccccc1)NC(=O)[C@H](C)NC(=O)[C@H](CC(C)C)NC(=O)[C@H](CC(=O)O)NC(=O)[C@H](CO)NC(=O)[C@H](CO)NC(=O)[C@H](Cc1c[nH]cn1)NC(=O)[C@H](CC(=O)O)NC(=O)[C@@H](NC(=O)CNC(=O)[C@H](CCC(N)=O)NC(=O)[C@H](Cc1ccccc1)NC(=O)[C@H](C)NC(=O)[C@H](CCCNC(=N)N)NC(=O)[C@H](CO)NC(=O)[C@H](CO)NC(=O)[C@H](CCC(N)=O)NC(=O)[C@H](CC(N)=O)NC(=O)[C@@H]1CCCN1)[C@@H](C)O)C(=O)N[C@@H](CCCN)C(=O)N[C@@H](Cc1ccccc1)C(N)=O", "note": "[2I8-(D-Arg)-Dmt-Orn-Phe-NH2] (H-PNQSSRAFQGTDHSSDLAFDFLSQQ[dR][Dmt][Orn]F-NH2; N-terminus assumed)", "IC50": "30.2 ± 3.6"}
{"molecule": "CC(C)C[C@H](NC(=O)[C@H](CC(=O)O)NC(=O)[C@H](CO)NC(=O)[C@H](CO)NC(=O)[C@H](Cc1c[nH]cn1)NC(=O)[C@H](CC(=O)O)NC(=O)[C@@H](NC(=O)CNC(=O)[C@H](CCC(N)=O)NC(=O)[C@H](Cc1ccccc1)NC(=O)[C@H](C)NC(=O)[C@H](CCCNC(=N)N)NC(=O)[C@H](CO)NC(=O)[C@H](CO)NC(=O)[C@H](CCC(N)=O)NC(=O)[C@H](CC(N)=O)NC(=O)[C@@H]1CCCN1)[C@@H](C)O)C(=O)N[C@@H](C)C(=O)N[C@@H](Cc1ccccc1)C(=O)N[C@@H](CC(=O)O)C(=O)N[C@@H](Cc1ccccc1)C(=O)N[C@@H](CC(C)C)C(=O)N[C@@H](CO)C(=O)N[C@@H](CCC(N)=O)C(=O)N[C@@H](CCC(N)=O)C(=O)N[C@@H](CCCNC(=N)N)C(=O)N[C@H](CCCNC(=N)N)C(=O)N[C@@H](CCCNC(=N)N)C(=O)N[C@@H](CCCCN)C(=O)O", "note": "[2I8-R-{D-Arg}-RK] (H-PNQSSRAFQGTDHSSDLAFDFLSQQR[dR]RK-OH; N-terminus and C-terminus assumed)", "IC50": "19.7 ± 4.3"}
{"molecule": "Cc1cc(O)cc(C)c1C[C@H](NC(=O)[C@H](N)CCCNC(=N)N)C(=O)N[C@@H](CCCN)C(=O)N[C@@H](Cc1ccccc1)C(=O)N[C@@H](C)C(=O)N[C@@H](CC(C)C)C(=O)N[C@@H](CC(C)C)C(=O)N[C@H](C(=O)N[C@@H](CO)C(=O)NCC(=O)N[C@H](C(=O)N[C@@H](CO)C(=O)N[C@@H](CC(=O)O)C(=O)N1CCC[C@H]1C(=O)N[C@@H](CCCNC(=N)N)C(=O)N[C@@H](C)C(=O)N[C@@H](CCCNC(=N)N)C(=O)N[C@H](C(=O)N[C@H](C(=O)N[C@@H](Cc1ccc(O)cc1)C(=O)NCC(=O)N[C@H](C(=O)N1CCC[C@H]1C(=O)N[C@@H](CO)C(=O)N[C@@H](CC(C)C)C(=O)N[C@@H](Cc1c[nH]c2ccccc12)C(=O)N[C@@H](C)C(=O)N[C@@H](CCCNC(=N)N)C(=O)N[C@@H](CC(C)C)C(=O)O)[C@@H](C)O)[C@@H](C)O)C(C)C)[C@@H](C)O)[C@@H](C)O", "note": "[D-Arg-Dmt-Orn-Phe-1C11] (H-[dR][Dmt][Orn]FALLTSGTSDPRARVTYGTPSLWARL-OH; N-terminus and C-terminus assumed)", "IC50": "89.3 ± 5.49"}
